The subject of assay [1] is ATL cell line, ED40515 (−). The assay is described as follows: Chromosome double-strand break (Giemsa chromosome specimens), ED40515 (−). In kind it is cell-based. As to conditions: 48 hours, abacavir 10-100 μM, zidovudine 10 or 100 μM. As for the experimental part: Abacavir was added to an ATL cell line, ED40515 (−), at a concentration of 0 μM (DMSO was added instead of abacavir), 10 μM, 25 μM, 50 μM, 75 μM or 100 μM. After the 48 hours culture, the cells were fixed by Carnoy and stained with Giemsa to prepare chromosome specimens in accordance with conventional methods. Similarly, zidovudine was added to ED40515 (−) at a concentration of 10 μM or 100 μM, and abacavir was added to a non-ATL cell line, Jurkat, at a concentration of 100 μM, and chromosome specimens were prepared. Chromosome images (100 or more images per group) were observed by an optical microscope. The cells were determined as being positive for double-strand break (DSB) when at least one chromosome break was found.

A further assay has as its system ATL cells. As to conditions: in vitro; Non Patent Literature 4; cited from earlier work.
The test system of assay [2] is HTLV-1-infected cell line, MT2. Briefly: Combination of abacavir and topoisomerase inhibitor, cellular proliferation (MTS), MT2. In kind it is cell-based. To be noted: 48 hours, abacavir 10 or 25 μM plus CPT-11 200-400 pM, VP16 100-500 nM or ADR 10-50 nM. The protocol:
An HTLV-1-infected cell line, MT2 cell, was used. Abacavir was added at a concentration of 0 μM (DMSO was added instead of abacavir), 10 μM, or 25 μM, and to each of the samples, CPT-11 (generic name: irinotecan) was further added at a concentration of 0 pM, 200 pM, 300 pM, or 400 pM. The cells were cultured for 48 hours. Separately, abacavir was added to MT2 cells at the concentrations as described above, and VP16 (generic name: etoposide) was further added to each of the samples at a concentration of 0 nM, 100 nM, 250 nM, or 500 nM, followed by 48 hours culture. Separately, abacavir was added to MT2 cells at the concentrations as described above, and ADR (generic name: doxorubicin) was further added at a concentration of 0 nM, 10 nM, 25 nM, or 50 nM, followed by 48 hours culture. MTS assay was performed using a reagent for cellular proliferation test, Aqueous One Solution Cell Proliferation (trade name, manufactured by Promega), in the same manner as in Example 1.
The graphs (A), (B), and (c) show the results of combinations of abacavir (ABC in the graph) and CPT-11, abacavir and VP16, and abacavir and ADR, respectively. In the graphs, the vertical axis indicates the proliferation rate calculated from the cell number when the cell number at the administration of the agents was regarded as 1.

In assay [3] the test system is non-ATL cell line, Jurkat. The assay is described as follows: PARP inhibitor combination, cellular proliferation (MTS), Jurkat. The assay is classed as cell-based, human. To be noted: olaparib 1-1000 μM, 48 hours. The protocol: (§1) To an ATL cell line, ED40515 (−), or a non-ATL cell line, Jurkat, abacavir was added at a concentration of 0 μM (DMSO, was added instead of abacavir), 10 μM, 50 μM or 100 μM, and further a PARP inhibitor, olaparib, was added at a concentration of 0 μM (DMSO was added instead of olaparib), 1 μM, 10 μM, 100 μM or 1000 μM. The cells were cultured for 48 hours. MTS assay was performed using a reagent for cellular proliferation test, Aqueous One Solution Cell Proliferation (trade name, manufactured by Promega), in the same manner as in Example 1. The cellular proliferation was represented by a ratio relative to that of the control (solvent control) on Day 0 that was regarded as 1.

Assay [4] has as its system ATL cell line, ED40515 (−). The assay is described as follows: PARP inhibitor combination, cellular proliferation (MTS), ED40515 (−). The assay is classed as cell-based. To be noted: olaparib 1-1000 μM with abacavir 10, 50 or 100 μM, 48 hours. As for the experimental part: as §1

Molecules are shown by their SMILES.

Turning to `Cc1cn([C@H]2C[C@H](N=[N+]=[N-])[C@@H](CO)O2)c(=O)[nH]c1=O` [zidovudine], the “ratio of double-strand break-positive cells” value in assay [1] was “did not induce double-strand break”. Besides, in the assay with ATL cells, the “anti-cancer effect against ATL cells” value is given as “no anti-cancer effect”.
On to `CCc1c2c(nc3ccc(OC(=O)N4CCC(N5CCCCC5)CC4)cc13)-c1cc3c(c(=O)n1C2)COC(=O)[C@]3(O)CC` [CPT-11, irinotecan], for which the “cellular proliferation (proliferation rate) in combination with abacavir” value in assay [2] is given as “significantly suppressed cellular proliferation”.
Turning to `O=C(c1cc(Cc2n[nH]c(=O)c3ccccc23)ccc1F)N1CCN(C(=O)C2CC2)CC1` [olaparib], the cellular proliferation entry in assay [3] was “did not affect cellular proliferation”. Besides, in assay [4], the “effect of PARP inhibitor on suppression of cellular proliferation by abacavir” value was “enhanced the suppressive effect of abacavir”.
In the case of `COc1cc([C@@H]2c3cc4c(cc3[C@@H](O[C@@H]3O[C@@H]5CO[C@@H](C)O[C@H]5[C@H](O)[C@H]3O)[C@H]3COC(=O)[C@H]23)OCO4)cc(OC)c1O` [VP16, etoposide], the “cellular proliferation (proliferation rate) in combination with abacavir” value in assay [2] is given as “significantly suppressed cellular proliferation”.
On the same count and under the same terms, as for `COc1cccc2c1C(=O)c1c(O)c3c(c(O)c1C2=O)C[C@@](O)(C(=O)CO)C[C@@H]3O[C@H]1C[C@H](N)[C@H](O)[C@H](C)O1` [ADR, doxorubicin], the entry is “significantly suppressed cellular proliferation”.

The record behind these values is patent publication US20160000796A1, “PHARMACEUTICAL COMPOSITION FOR USE IN PREVENTION OR TREATMENT OF CANCER” (priority 2013, published 2016).
